Measured values: patent US4269717A, “Boiler additives for oxygen scavenging” (priority 1980, dated 1981)
Where two headings read alike, the source gives them in different places.

Columns and labels:
[1] = 227-239° F.; for % O2 Removal / Final O2: initial O2 40 ppb; for Oxygen scavenging activity relative to hydrazine: Table II
Procedure: A second more extensive group of potential oxygen scavengers were compared, again using a small laboratory boiler and oxygen saturated feed water containing sodium hydroxide. […] The hydrazine salts among this group are no less toxic than hydrazine and therefore were eliminated from further study. […] In addition, the carbohydrazide was preferred because it is a solid at room temperature and could therefore be used in dry formulations.
INITIAL SCREENING AT 227-239° F.

[2] = Carbohydrazide vs. hydrazine in oxygen removal, once-through apparatus (Table III); settings: initial O2 7.4 ppm, 227-239° F., pH about 10.5
Procedure: A once-through experimental apparatus for simulating boiler water transport was utilized in this example. Water temperature in this example was maintained at about 227°-239° F. and pH at about 10.5.

[3] = Metal passivation in experimental firerod boiler (Table IV); settings: 600 p.s.i., 48 hour test
Excerpt: Metal passivation studies were undertaken using an experimental firerod boiler under the following test conditions:
10 boiler water concentrations
40 ppm M alkalinity (as CaCO3)
A blank containing no oxygen scavenger was followed by test runs with hydrazine, carbohydrazide, and sodium sulfite.
*Tubes ranked by appearance of metal surface.

[4] = Carbohydrazide low temperature hydrolysis (Table V); type: physicochemical; settings: for ppm Hydrazine: 100 ppm hydrazine control, pH 10.25
Procedure: Low temperature hydrolysis studies of carbohydrazide were carried out using reagent grade carbohydrazide containing approximately 2.7±0.1% hydrazine as an impurity. A 1,000 ppm carbohydrazide solution and a 100 ppm hydrazine solution were prepared with deaerated, deionized water. Half of the carbohydrazide solution was adjusted to pH 10.2 with sodium hydroxide and the other half was left at its original pH of 6.9. The solutions were poured into Nessler tubes to overflowing and sealed with stoppers fitted with hypodermic needles to allow pressure release with minimum air contact. Four samples of both of the carbohydrazide solutions and two samples of the hydrazine control were stored at varying temperatures for varying periods of time, all as reported in Table V below.

Solubility in water = type: physicochemical
[5] = Initial oxygen scavenger screening in laboratory boiler at 200-220° F. (Table I)
Procedure: A small laboratory boiler was used to screen a number of potential oxygen scavengers. Oxygen saturated feed water which contained sodium hydroxide was used as the feed. The residence time for the treatment chemical was approximately 11 minutes. The boiler water temperature was maintained at between 200°-220° F. In these tests, 2% hydroquinone was used as the catalyst.
INITIAL SCREENING AT 200-220° F.

For `NN` [Hydrazine, hydrazine, reference compound], the “% O2 Removal” value [1] was 87.5%, the “Final O2” value [1] was 5 ppb and the “% O2 Removal” value ([2]; ppm scavenger/ppm O2 0.1/1) was 15.4%. For the same compound, the “Final O2” value ([2]; ppm scavenger/ppm O2 0.1/1) was 6.26 ppm, the “% O2 Removal” value ([2]; ppm scavenger/ppm O2 0.9/1) was 70.5% and the “Final O2” value ([2]; ppm scavenger/ppm O2 0.9/1) was 2.18 ppm. For the same compound, the “% O2 Removal” value ([2]; ppm scavenger/ppm O2 10.0/1) was 99.2%, the “Final O2” value ([2]; ppm scavenger/ppm O2 10.0/1) was 0.06 ppm and the “Tube Rank (by appearance of metal surface)” value ([3]; dosage 2 ppm) was 3. The “ppm Hydrazine” value ([4]; 120° F., 6 days) was 86.6 ppm, the “ppm Hydrazine” value ([4]; 180° F., 6 days) was 87.6 ppm and the “ppm Hydrazine” value ([4]; Room Temp. (77° F.), 6 days) was 89.8 ppm. For the same compound, the “ppm Hydrazine” value ([4]; time 0) was 97.4 ppm and the “Loss of initial hydrazine concentration” value ([4]; hydrazine control, after 6 days) was “approximately 10%”.

For `O=C(O)NNC(=O)O` [Disodiumdihydrazodicarboxylate], the “Oxygen scavenging activity relative to hydrazine” value [1] was “activity comparable to hydrazine”, the “% O2 Removal” value [1] was 75% and the “Final O2” value [1] was 10 ppb.

In the case of `NNC=O` [Formohydrazide], the “% O2 Removal” value [1] is reported as 0% and the “Final O2” value [1] is reported as 40 ppb.

For Di (methylformal)diazine, the “% O2 Removal” value [1] was 0% and the “Final O2” value [1] was 40 ppb.

For `NNC(=O)C(=O)NN` [Oxalic dihydrazide], the “Solubility in water (Table II)” value (Solubility in water) was “Insoluble In Water”.

In the case of `NN.NN.O=S(O)O` [Hydrazinium sulfite, reference compound], the “Oxygen scavenging activity relative to hydrazine” value [1] is reported as “activity comparable to hydrazine” and the “Final O2” value [1] is reported as 5 ppb.

In the case of `NN.O=S(=O)(O)O` [Hydrazine sulfate, Hydrazinium sulfate, reference compound], the “Final O2” value ([5]; dosage 500 ppb, pH 10.5, initial O2 40 ppb, 2% hydroquinone catalyst) is reported as 10 ppb, the “Oxygen scavenging activity relative to hydrazine” value [1] is reported as “activity comparable to hydrazine” and the “% O2 Removal” value [1] is reported as 87.5%. For the same compound, the “Final O2” value [1] was 5 ppb.

With `O=CNNC=O` [Diformohydrazide] the “% O2 Removal” value [1] was 0% and the “Final O2” value [1] was 40 ppb.

In the case of `O=S([O-])[O-].[Na+].[Na+]` [Na2 SO3, sodium sulfite, reference compound], the “Final O2” value ([5]; dosage 400 ppb, pH 9.65, initial O2 40 ppb) is reported as “.005 ppb” and the “Tube Rank (by appearance of metal surface)” value ([3]; dosage 20-40 ppm residual) is reported as 2.

With `COC(=O)NNC(=O)OC` [Dimethyldihydrazodicarboxylate] the “% O2 Removal” value [1] was 50% and the “Final O2” value [1] was 20 ppb.
